These results are taken from ChEMBL document CHEMBL3822374, “Anti-inflammatory polyphenol constituents derived from Cissus pteroclada Hayata” (Bioorg Med Chem Lett, 2016).

Data set [1] has as its system RAW264.7. In words: Cytotoxicity against mouse RAW264.7 cells assessed as reduction in cell viability at 50 umol/L after 24 hrs by MTT assay. The note with it: raw264.7, 24 h, 50 µM. The data set is classed as cell-based.
Data set [2] has as its system RAW264.7. In words: Cytotoxicity against LPS-stimulated mouse RAW264.7 cells assessed as reduction in cell viability at 50 umol/L after 24 hrs by MTT assay. Format: cell-based. The note with it: raw264.7, 24 h, 50 µM. For orientation: Tetrazolium assays rely on reduction of a dye to a coloured formazan, in cell work by metabolically active cells.
The test system of data set [3] is RAW264.7. The experiment in a line: Antiinflammatory activity against LPS-stimulated mouse RAW264.7 cells assessed as TNFalpha levels at 5 umol/L by ELISA (reference value: 183.21 +/- 5.36 pg/mL). The data set is classed as functional. A general note: An ELISA detects its analyte on a solid surface through an enzyme-linked reagent.
The subject of data set [4] is RAW264.7. In words: Antiinflammatory activity against LPS-stimulated mouse RAW264.7 cells assessed as TNFalpha levels at 25 umol/L by ELISA (reference value: 183.21 +/- 5.36 pg/mL). Format: functional.
The subject of data set [5] is RAW264.7. The experiment in a line: Antiinflammatory activity against LPS-stimulated mouse RAW264.7 cells assessed as TNFalpha levels at 50 umol/L by ELISA (reference value: 183.21 +/- 5.36 pg/mL). Format: functional.
The test system of data set [6] is RAW264.7. In words: Antiinflammatory activity against LPS-stimulated mouse RAW264.7 cells assessed as IL1beta levels at 5 umol/L by ELISA (reference value: 8.70 +/- 0.365 pg/mL). The data set is classed as functional.
In data set [7] the test system is RAW264.7. In words: Antiinflammatory activity against LPS-stimulated mouse RAW264.7 cells assessed as IL1beta levels at 25 umol/L by ELISA (reference value: 8.70 +/- 0.365 pg/mL). The data set is classed as functional.
Data set [8] relates to RAW264.7. The experiment in a line: Antiinflammatory activity against LPS-stimulated mouse RAW264.7 cells assessed as IL1beta levels at 50 umol/L by ELISA (reference value: 8.70 +/- 0.365 pg/mL). The data set is classed as functional.
Data set [9] has as its system RAW264.7. In words: Antiinflammatory activity against LPS-stimulated mouse RAW264.7 cells assessed as PGE2 levels at 5 umol/L by ELISA (reference value: 33.2 +/- 2.33 pg/mL). Format: functional.
Data set [10] relates to RAW264.7. The experiment in a line: Antiinflammatory activity against LPS-stimulated mouse RAW264.7 cells assessed as PGE2 levels at 25 umol/L by ELISA (reference value: 33.2 +/- 2.33 pg/mL). The data set is classed as functional.
Data set [11] relates to RAW264.7. In words: Antiinflammatory activity against LPS-stimulated mouse RAW264.7 cells assessed as PGE2 levels at 50 umol/L by ELISA (reference value: 33.2 +/- 2.33 pg/mL). Format: functional.
Data set [12] has as its system RAW264.7. In words: Antiinflammatory activity against LPS-stimulated mouse RAW264.7 cells assessed as NO levels at 5 umol/L by ELISA (reference value: 0.95 +/- 0.052 umol/mL). The data set is classed as functional.
Data set [13] deals with RAW264.7. In words: Antiinflammatory activity against LPS-stimulated mouse RAW264.7 cells assessed as NO levels at 25 umol/L by ELISA (reference value: 0.95 +/- 0.052 umol/mL). The data set is classed as functional.
Data set [14] concerns RAW264.7. In words: Antiinflammatory activity against LPS-stimulated mouse RAW264.7 cells assessed as NO levels at 50 umol/L by ELISA (reference value: 0.95 +/- 0.052 umol/mL). The data set is classed as functional.
Data set [15] deals with RAW264.7. In words: Antiinflammatory activity against LPS-stimulated mouse RAW264.7 cells assessed as iNOS levels at 5 umol/L by ELISA (reference value: 31.63 +/- 3.26 U/mL). The data set is classed as functional.
In data set [16] the test system is RAW264.7. In words: Antiinflammatory activity against LPS-stimulated mouse RAW264.7 cells assessed as iNOS levels at 25 umol/L by ELISA (reference value: 31.63 +/- 3.26 U/mL). The data set is classed as functional.
Data set [17] deals with RAW264.7. The experiment in a line: Antiinflammatory activity against LPS-stimulated mouse RAW264.7 cells assessed as iNOS levels at 50 umol/L by ELISA (reference value: 31.63 +/- 3.26 U/mL). Format: functional.
Data set [18] is described as follows: Inhibition of NFkappaB signaling pathway in LPS-stimulated mouse RAW264.7 cells assessed as protein levels at 5 umol/L by ELISA (reference value: 1.23 +/- 0.06 pg/mL). The data set is classed as cell-based.
The nature of data set [19]: Inhibition of NFkappaB signaling pathway in LPS-stimulated mouse RAW264.7 cells assessed as protein levels at 25 umol/L by ELISA (reference value: 1.23 +/- 0.06 pg/mL). The data set is classed as cell-based.
Data set [20] in a line: Inhibition of NFkappaB signaling pathway in LPS-stimulated mouse RAW264.7 cells assessed as protein levels at 50umol/L by ELISA (reference value: 1.23 +/- 0.06 pg/mL). The data set is classed as cell-based.
Data set [21] relates to RAW264.7. In words: Antiinflammatory activity against LPS-stimulated mouse RAW264.7 cells assessed as COX2 levels at 5 umol/L by ELISA (reference value: 159.64 +/- 13.56 pg/mL). The data set is classed as functional.
In data set [22] the test system is RAW264.7. The experiment in a line: Antiinflammatory activity against LPS-stimulated mouse RAW264.7 cells assessed as COX2 levels at 25 umol/L by ELISA (reference value: 159.64 +/- 13.56 pg/mL). The data set is classed as functional.
In data set [23] the test system is RAW264.7. In words: Antiinflammatory activity against LPS-stimulated mouse RAW264.7 cells assessed as COX2 levels at 50 umol/L by ELISA (reference value: 159.64 +/- 13.56 pg/mL). Format: functional.
For data set [24], the system named is RAW264.7. In words: Antiinflammatory activity against LPS-stimulated mouse RAW264.7 cells assessed as TNFalpha levels by ELISA (reference value: 183.21 +/- 5.36 pg/mL). The data set is classed as functional.
Data set [25] deals with RAW264.7. The experiment in a line: Antiinflammatory activity against LPS-stimulated mouse RAW264.7 cells assessed as IL1beta levels by ELISA (reference value: 8.70 +/- 0.365 pg/mL). The data set is classed as functional.
Data set [26] concerns RAW264.7. The experiment in a line: Antiinflammatory activity against LPS-stimulated mouse RAW264.7 cells assessed as PGE2 levels by ELISA (reference value: 33.2 +/- 2.33 pg/mL). The data set is classed as functional.
The test system of data set [27] is RAW264.7. In words: Antiinflammatory activity against LPS-stimulated mouse RAW264.7 cells assessed as NO levels by ELISA (reference value: 0.95 +/- 0.052 umol/mL). Format: functional.
Data set [28] has as its system RAW264.7. The experiment in a line: Antiinflammatory activity against LPS-stimulated mouse RAW264.7 cells assessed as iNOS levels by ELISA (reference value: 31.63 +/- 3.26 U/mL). The data set is classed as functional.
Data set [29] in a line: Inhibition of NFkappaB signaling pathway in LPS-stimulated mouse RAW264.7 cells assessed as protein levels by ELISA (reference value: 1.23 +/- 0.06 pg/mL). Format: cell-based.
The subject of data set [30] is RAW264.7. The experiment in a line: Antiinflammatory activity against LPS-stimulated mouse RAW264.7 cells assessed as COX2 levels by ELISA (reference value: 159.64 +/- 13.56 pg/mL). Format: functional.

In the case of `O=c1c(O)c(-c2cc(O)c(O)c(O)c2)oc2cc(O)cc(O)c12` [MYRICETIN], the Activity result in data set [1] was “Non-toxic”; in [2], “Non-toxic”; in data set [3], 36.23 pg/mL; in data set [4], 35.59 pg/mL; in data set [5], 35.44 pg/mL; in data set [6], 3.44 pg/mL. In addition, the Activity in data set [7] came out at 0.91 pg/mL; in data set [8] it was 0.89 pg/mL; in [9], 27.23 pg/mL; in data set [10], 23.36 pg/mL; in data set [11], 23.33 pg/mL; in [12], 0.42 µmol/mL. Further, the Activity was found to be 0.24 µmol/mL in data set [13]; 0.12 µmol/mL in data set [14]; 24.26 U/ml in [15]; 21.38 U/ml in [16]; 17.44 U/ml in [17]; 0.453 pg/mL in [18]. Besides, the Activity was determined as 0.443 pg/mL in data set [19]; 0.34 pg/mL in data set [20]; 174.99 pg/mL in data set [21]; 142.13 pg/mL in data set [22]; 118.25 pg/mL in [23].

Take `O=c1c(O)cccc2cc(O)c(O)c(O)c12` [PURPUROGALLIN]: the Activity entry in [1] was “Non-toxic”; in data set [2], “Non-toxic”; in [3] it was 52.85 pg/mL; in data set [4], 44.36 pg/mL; in data set [5], 42.44 pg/mL; in [6] it was 6.7 pg/mL. In addition, the Activity amounted to 2.95 pg/mL in data set [7]; 2.88 pg/mL in data set [8]; 28.76 pg/mL in data set [9]; 28.11 pg/mL in [10]; 27.57 pg/mL in data set [11]; 0.59 µmol/mL in data set [12]. The Activity is 0.42 µmol/mL in data set [13]; 0.21 µmol/mL in [14]; 31.37 U/ml in data set [15]; 22.15 U/ml in data set [16]; 21.64 U/ml in data set [17]; 0.32 pg/mL in data set [18]. For the same compound, the Activity in data set [19] worked out at 0.086 pg/mL; in data set [20] it was 0.053 pg/mL; in [21] it was 120.78 pg/mL; in [22], 67.73 pg/mL; in data set [23], 67.23 pg/mL.

For the compound `Oc1ccc(/C=C/c2cc(O)cc(O)c2)cc1` [RESVERATROL], the Activity result in data set [1] is “Non-toxic”; in data set [2], “Non-toxic”; in data set [3], 109.42 pg/mL; in [4] it was 96.47 pg/mL; in data set [5], 74.91 pg/mL; in data set [6], 5.26 pg/mL. Moreover, the Activity in [7] worked out at 4.76 pg/mL; in [8], 2.98 pg/mL; in [9], 31.43 pg/mL; in data set [10] it was 29.15 pg/mL; in data set [11], 28.81 pg/mL; in [12], 0.38 µmol/mL. Besides, the Activity in [13] amounted to 0.082 µmol/mL; in [14], 0.053 µmol/mL; in data set [15], 29.22 U/ml; in data set [16] it was 25.88 U/ml; in data set [17], 19.26 U/ml; in [18], 0.57 pg/mL. The Activity in data set [19] turned out to be 0.25 pg/mL; in data set [20], 0.15 pg/mL; in data set [21], 121.49 pg/mL; in data set [22], 104.11 pg/mL; in [23], 83.48 pg/mL.

As for `COc1ccc2c(c1)c(CC(=O)O)c(C)n2C(=O)c1ccc(Cl)cc1` [INDOMETHACIN], the Activity in [24] turned out to be 58.55 pg/mL; in [25], 3.15 pg/mL; in data set [26] it was 19.67 pg/mL; in data set [27] it was 0.17 µmol/mL; in [28], 17.38 U/ml; in data set [29], 0.39 pg/mL. Further, in data set [30], the Activity turned out to be 71.47 pg/mL.

In the case of `O=C(O)c1cc(O)c(O)c(O)c1` [GALLIC ACID], the Activity entry in [1] is “Non-toxic”; in data set [2] it was “Non-toxic”; in data set [3], 103.08 pg/mL; in data set [4], 80.77 pg/mL; in data set [5], 62.59 pg/mL; in [6] it was 4.33 pg/mL. Moreover, the Activity in data set [7] was found to be 4.17 pg/mL; in [8], 4.13 pg/mL; in data set [9] it was 33.06 pg/mL; in data set [10], 32.74 pg/mL; in data set [11], 30.26 pg/mL; in [12], 0.88 µmol/mL. The Activity in data set [13] was found to be 0.39 µmol/mL; in [14], 0.031 µmol/mL; in data set [15] it was 35.29 U/ml; in [16], 29.76 U/ml; in data set [17], 20.57 U/ml; in data set [18], 0.76 pg/mL. Besides, the Activity in data set [19] is 0.14 pg/mL; in [20] it was 0.07 pg/mL; in data set [21], 183.21 pg/mL; in data set [22], 149.16 pg/mL; in data set [23], 122.67 pg/mL.
